Consider two molecules from US12384786B2 (MINGHUI PHARMACEUTICAL (SHANGHAI) LIMITED, priority 2019, dated 2025).

Data set [1] has as its system TMD8 cells (Human diffuse large B lymphoma cells). Nature of the data set: CellTiter-Glo TMD8 inhibitory activity. Format: cell-based. The settings on record: cultured in vitro. From the text: CellTiter-Glo kit was used to test the TMD8 inhibitory activity of compounds of examples on Human diffuse large B lymphoma cells cultured in vitro. IC50 values were shown below.

Data set [2] has as its target Full-length human BTK (Homo sapiens (Human), UniProt Q06187). Kind of data set: BTK inhibitory activity, Reaction Biology Corporation kinase assay.
Data set [3] addresses Full-length human BTK (C481S) (Homo sapiens (Human), UniProt Q06187, C481S). Nature of the data set: BTK (C481S) inhibitory activity, Reaction Biology Corporation kinase assay. The settings on record: read-out: IC50(nM) BTK(C481S); (b) ATP concentration 100 μM.
The test system of data set [4] is subcutaneous xenograft TMD8 tumor. Nature of the data set: Subcutaneous transplantation tumor model of TMD8 cells in NOD/SCID mice. Format: in vivo. Particulars: for inhibitory effect on growth of subcutaneous transplanted TMD8 tumor / anti-tumor effect: orally 30 mg/kg once a day or 10→5 mg/kg twice a day; for tumor growth inhibition rate (TGI): after 22 days of administration. Here is the method: In the subcutaneous transplantation tumor model of human diffuse large B lymphoma TMD8 cells in NOD/SCID mice, the inhibitory effect of example 1 on tumor growth was tested. Tumor growth and animal body weight were presented in FIG. 1 and FIG. 2 as followed. […] Therefore, the dose was adjusted to 5 mg/kg and continued to administrate for 14 days.

The target of data set [5] is Full-length human BTK. Kind of data set: BTK inhibitory activity, Reaction Biology Corporation kinase assay. Particulars: read-out: IC50 of standard; standard in BTK/BTK (C481S) assay, ATP 10 μM.

pIC50: −log10 of the molar value. Entries after “also recorded” stand apart in the source; their conditions may differ.

Sequence of Full-length human BTK (Homo sapiens (Human), UniProt Q06187) (Q06187 whole entry): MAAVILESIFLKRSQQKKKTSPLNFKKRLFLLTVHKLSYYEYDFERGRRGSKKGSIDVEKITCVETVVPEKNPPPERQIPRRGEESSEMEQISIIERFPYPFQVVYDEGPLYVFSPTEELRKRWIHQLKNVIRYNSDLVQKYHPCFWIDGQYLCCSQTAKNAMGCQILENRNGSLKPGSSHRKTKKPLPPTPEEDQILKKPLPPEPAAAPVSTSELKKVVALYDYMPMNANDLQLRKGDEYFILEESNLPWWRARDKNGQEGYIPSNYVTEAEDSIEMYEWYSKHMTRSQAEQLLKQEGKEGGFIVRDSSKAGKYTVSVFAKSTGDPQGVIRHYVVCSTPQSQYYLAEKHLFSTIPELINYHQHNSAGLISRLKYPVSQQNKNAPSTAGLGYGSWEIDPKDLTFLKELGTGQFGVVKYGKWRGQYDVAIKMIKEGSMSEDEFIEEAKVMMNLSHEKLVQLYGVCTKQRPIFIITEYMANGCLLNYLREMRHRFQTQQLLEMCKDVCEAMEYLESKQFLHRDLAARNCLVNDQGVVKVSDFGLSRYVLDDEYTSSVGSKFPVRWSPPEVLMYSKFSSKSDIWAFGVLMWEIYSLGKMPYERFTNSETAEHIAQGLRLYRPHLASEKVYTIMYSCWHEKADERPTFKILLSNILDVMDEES
Sequence of Full-length human BTK (C481S) (Q06187 whole entry C481S): as the sequence (Q06187 whole entry) above, with C481S counted along it

In the case of `Nc1ncnc2c1c(-c1ccc(Oc3ccccc3)cc1)nn2[C@@H]1CCC[C@@H](O)C1` [Example 1, (1R,3R)-3-(4-amino-3-(4-phenoxyphenyl)-1h-pyrazole[3,4-d]pyrimidin-1-yl)cyclohex-1-ol], the IC50 is 20 nM in data set [1]; 8.1 nM on Full-length human BTK [2] (read-out: IC50(nM) BTK, (b) ATP concentration 100 μM); 3.4 nM in data set [3]. Moreover, the inhibition at 0.005 µM on Full-length human BTK [2] (read-out: BTK inhibitory rate(%)) was found to be 60%. The animal body weight result in data set [4] (10 mg/kg orally twice a day for 8 successive days) is given as “decreased slightly”. Also, the “effect on animal body weight” value in data set [4] (30 mg/kg orally once a day) is reported as “no significant effect”. In data set [4] (during administration, treatment groups overall), the “influence on the body weight of animals” value is “without showing obvious influence”. Also, the “inhibitory effect on growth of subcutaneous transplanted TMD8 tumor / anti-tumor effect” value in data set [4] is on record as “obvious inhibitory effect”; in data set [4] (listed as example 1), “significant anti-tumor effect; also recorded: significantly inhibited the growth of tumor”. Besides, the “tumor growth inhibition rate (TGI)” value in data set [4] (orally once a day at 30 mg/kg) was 49.6%; in data set [4] (orally twice a day at 10→5 mg/kg), 52.7%.
In the case of `CN[C@@H]1C[C@H]2O[C@@](C)([C@@H]1OC)n1c3ccccc3c3c4c(c5c6ccccc6n2c5c31)C(=O)NC4` [Starsporin, reference compound], the pIC50 at Full-length human BTK [5] is 8.40.
